{"source": "paper PMC11882969", "about": "(Nature Communications, 2025)", "key": {"CB1 (rCB1) [1]": {"target": "T1, CB1 (rCB1) (Rattus norvegicus, UniProt P20272)", "T1 sequence (P20272 whole entry)": "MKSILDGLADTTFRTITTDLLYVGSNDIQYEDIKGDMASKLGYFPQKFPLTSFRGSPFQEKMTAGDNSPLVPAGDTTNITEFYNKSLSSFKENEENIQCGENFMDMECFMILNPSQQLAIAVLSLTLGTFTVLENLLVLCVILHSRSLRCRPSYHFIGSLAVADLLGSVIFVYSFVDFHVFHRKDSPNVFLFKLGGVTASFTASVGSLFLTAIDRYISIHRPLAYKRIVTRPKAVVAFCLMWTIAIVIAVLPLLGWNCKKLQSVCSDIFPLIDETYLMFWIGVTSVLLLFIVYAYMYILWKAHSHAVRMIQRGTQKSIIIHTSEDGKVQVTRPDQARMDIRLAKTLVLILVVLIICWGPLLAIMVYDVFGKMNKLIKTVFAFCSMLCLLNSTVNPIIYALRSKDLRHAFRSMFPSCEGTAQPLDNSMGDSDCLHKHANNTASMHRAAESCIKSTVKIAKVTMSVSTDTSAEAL", "assay": "Single-point radioligand displacement screen", "assay_type": "binding", "conditions": "10 µM, 1 µM or 300 nM by cell colour (not visible)"}, "hCB1": {"target": "hCB1 (Homo sapiens, UniProt P21554)", "sequence (P21554 whole entry)": "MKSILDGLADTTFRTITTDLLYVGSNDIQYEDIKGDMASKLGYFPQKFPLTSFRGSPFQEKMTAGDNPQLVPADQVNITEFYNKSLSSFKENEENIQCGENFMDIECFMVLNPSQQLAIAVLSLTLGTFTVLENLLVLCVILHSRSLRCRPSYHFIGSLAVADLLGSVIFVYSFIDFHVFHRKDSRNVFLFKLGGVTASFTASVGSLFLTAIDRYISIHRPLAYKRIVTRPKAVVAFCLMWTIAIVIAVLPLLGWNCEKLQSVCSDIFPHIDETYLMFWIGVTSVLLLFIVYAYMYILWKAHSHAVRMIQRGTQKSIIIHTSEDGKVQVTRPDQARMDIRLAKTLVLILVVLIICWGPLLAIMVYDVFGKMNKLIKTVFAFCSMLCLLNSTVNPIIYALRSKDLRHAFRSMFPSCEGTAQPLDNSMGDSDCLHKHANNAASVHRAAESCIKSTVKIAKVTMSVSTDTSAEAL", "assay": "bioSensAll ebBRET signaling profiling, hCB1", "assay_type": "cell-based", "design": "host or cells: HEK293SL cells, transient PEI transfection", "conditions": "for Barr2+GRK2 hCB1 response: Barr2+GRK2 biosensor; for Gi1 hCB1 / GoB hCB1: single replicate values, FigS6a"}, "CB1 (rCB1) [2]": {"target": "T1, CB1 (rCB1)", "assay": "Radioligand competition binding, [3H]-CP-55,940, rat brain membranes"}}, "data": [{"smiles": "Brc1cc2c(cc1Cc1noc(-c3cnn(CC4CC4)c3)n1)OCO2", "note": "[‘5424]", "values": [{"measurement": "% 1H-CP-55,940 displacement (mean) from single point screen", "setting": "CB1 (rCB1) [1]", "value": 80.66, "unit": "%"}, {"measurement": "Barr2+GRK2 hCB1 response", "setting": "hCB1; Log [Compound] (M) -4.22186", "value": 13.3846}, {"measurement": "Barr2+GRK2 hCB1 response", "setting": "hCB1; Log [Compound] (M) -4.63927", "value": -34.7954}, {"measurement": "Barr2+GRK2 hCB1 response", "setting": "hCB1; Log [Compound] (M) -5.05788", "value": -53.3016}, {"measurement": "Barr2+GRK2 hCB1 response", "setting": "hCB1; Log [Compound] (M) -5.47381", "value": -24.9041}, {"measurement": "Barr2+GRK2 hCB1 response", "setting": "hCB1; Log [Compound] (M) -5.89285", "value": -50.1109}, {"measurement": "Barr2+GRK2 hCB1 response", "setting": "hCB1; Log [Compound] (M) -6.31878", "value": -50.749}, {"measurement": "Barr2+GRK2 hCB1 response", "setting": "hCB1; Log [Compound] (M) -6.72585", "value": -48.8346}, {"measurement": "Barr2+GRK2 hCB1 response", "setting": "hCB1; Log [Compound] (M) -7.14267", "value": -52.6635}, {"measurement": "Barr2+GRK2 hCB1 response", "setting": "hCB1; Log [Compound] (M) -7.55284", "value": -51.0681}, {"measurement": "Barr2+GRK2 hCB1 response", "setting": "hCB1; Log [Compound] (M) -8", "value": -33.5191}, {"measurement": "Barr2+GRK2 hCB1 response", "setting": "hCB1; Log [Compound] (M) -8.22186", "value": -13.7366}, {"measurement": "Barr2+GRK2 hCB1 response", "setting": "hCB1; Log [Compound] (M) -8.39794", "value": -34.7954}, {"measurement": "Barr2+GRK2 hCB1 response", "setting": "hCB1; Log [Compound] (M) -8.68787", "value": -65.1073}, {"measurement": "Barr2+GRK2 hCB1 response", "setting": "hCB1; Log [Compound] (M) -9.15521", "value": -41.4959}, {"measurement": "Barr2+GRK2 hCB1 response", "setting": "hCB1; Log [Compound] (M) -9.61989", "value": -48.1965}, {"measurement": "Barr2+GRK2 hCB1 response", "setting": "hCB1; Log [Compound] (M) -10.0969", "value": -56.8114}, {"measurement": "Barr2+GRK2 hCB1 response", "setting": "hCB1; Log [Compound] (M) -10.5529", "value": -48.8346}, {"measurement": "Barr2+GRK2 hCB1 response", "setting": "hCB1; Log [Compound] (M) -11.0177", "value": -49.7918}, {"measurement": "Barr2+GRK2 hCB1 response", "setting": "hCB1; Log [Compound] (M) -11.4949", "value": -48.1965}, {"measurement": "Barr2+GRK2 hCB1 response", "setting": "hCB1; Log [Compound] (M) -11.9208", "value": -46.9202}, {"measurement": "Barr2+GRK2 hCB1 response", "setting": "hCB1; Log [Compound] (M) -12.3979", "value": -47.8774}, {"measurement": "Barr2+GRK2 hCB1 response", "setting": "hCB1; Log [Compound] (M) -12.8861", "value": -20.4371}, {"measurement": "Barr2+GRK2 hCB1 response", "setting": "hCB1; Log [Compound] (M) -13.3979", "value": -11.8221}, {"measurement": "Gi1 hCB1", "setting": "hCB1; Log [Compound] (M) -4.22186", "value": -12.5553}, {"measurement": "GoB hCB1", "setting": "hCB1; Log [Compound] (M) -4.22186", "value": -17.0204}, {"measurement": "Gi1 hCB1", "setting": "hCB1; Log [Compound] (M) -4.63927", "value": -11.9852}, {"measurement": "GoB hCB1", "setting": "hCB1; Log [Compound] (M) -4.63927", "value": -18.7739}, {"measurement": "Gi1 hCB1", "setting": "hCB1; Log [Compound] (M) -5.05788", "value": -14.0757}, {"measurement": "GoB hCB1", "setting": "hCB1; Log [Compound] (M) -5.05788", "value": -12.8536}, {"measurement": "Gi1 hCB1", "setting": "hCB1; Log [Compound] (M) -5.47381", "value": -12.6978}, {"measurement": "GoB hCB1", "setting": "hCB1; Log [Compound] (M) -5.47381", "value": -15.4926}, {"measurement": "Gi1 hCB1", "setting": "hCB1; Log [Compound] (M) -5.89285", "value": -12.001}, {"measurement": "GoB hCB1", "setting": "hCB1; Log [Compound] (M) -5.89285", "value": -16.569}, {"measurement": "Gi1 hCB1", "setting": "hCB1; Log [Compound] (M) -6.31878", "value": -13.0779}, {"measurement": "GoB hCB1", "setting": "hCB1; Log [Compound] (M) -6.31878", "value": -15.128}, {"measurement": "Gi1 hCB1", "setting": "hCB1; Log [Compound] (M) -6.72585", "value": -11.811}, {"measurement": "GoB hCB1", "setting": "hCB1; Log [Compound] (M) -6.72585", "value": -16.3259}, {"measurement": "Gi1 hCB1", "setting": "hCB1; Log [Compound] (M) -7.14267", "value": -11.1775}, {"measurement": "GoB hCB1", "setting": "hCB1; Log [Compound] (M) -7.14267", "value": -15.4926}, {"measurement": "Gi1 hCB1", "setting": "hCB1; Log [Compound] (M) -7.55284", "value": -10.8449}, {"measurement": "GoB hCB1", "setting": "hCB1; Log [Compound] (M) -7.55284", "value": -14.0342}, {"measurement": "Gi1 hCB1", "setting": "hCB1; Log [Compound] (M) -8", "value": -8.707}, {"measurement": "GoB hCB1", "setting": "hCB1; Log [Compound] (M) -8", "value": -12.871}, {"measurement": "Gi1 hCB1", "setting": "hCB1; Log [Compound] (M) -8.22186", "value": -5.46}, {"measurement": "GoB hCB1", "setting": "hCB1; Log [Compound] (M) -8.22186", "value": -9.781}, {"measurement": "Gi1 hCB1", "setting": "hCB1; Log [Compound] (M) -8.39794", "value": -6.126}, {"measurement": "GoB hCB1", "setting": "hCB1; Log [Compound] (M) -8.39794", "value": -10.3709}, {"measurement": "Gi1 hCB1", "setting": "hCB1; Log [Compound] (M) -8.68787", "value": -3.497}, {"measurement": "GoB hCB1", "setting": "hCB1; Log [Compound] (M) -8.68787", "value": -5.77}, {"measurement": "Gi1 hCB1", "setting": "hCB1; Log [Compound] (M) -9.15521", "value": -3.212}, {"measurement": "GoB hCB1", "setting": "hCB1; Log [Compound] (M) -9.15521", "value": -5.544}, {"measurement": "Gi1 hCB1", "setting": "hCB1; Log [Compound] (M) -9.61989", "value": -0.3926}, {"measurement": "GoB hCB1", "setting": "hCB1; Log [Compound] (M) -9.61989", "value": -4.867}, {"measurement": "Gi1 hCB1", "setting": "hCB1; Log [Compound] (M) -10.0969", "value": -1.39}, {"measurement": "GoB hCB1", "setting": "hCB1; Log [Compound] (M) -10.0969", "value": -5.128}, {"measurement": "Gi1 hCB1", "setting": "hCB1; Log [Compound] (M) -10.5529", "value": 0.9853}, {"measurement": "GoB hCB1", "setting": "hCB1; Log [Compound] (M) -10.5529", "value": -3.287}, {"measurement": "Gi1 hCB1", "setting": "hCB1; Log [Compound] (M) -11.0177", "value": -1.058}, {"measurement": "GoB hCB1", "setting": "hCB1; Log [Compound] (M) -11.0177", "value": -4.781}, {"measurement": "Gi1 hCB1", "setting": "hCB1; Log [Compound] (M) -11.4949", "value": -2.008}, {"measurement": "GoB hCB1", "setting": "hCB1; Log [Compound] (M) -11.4949", "value": -5.51}, {"measurement": "Gi1 hCB1", "setting": "hCB1; Log [Compound] (M) -11.9208", "value": -4.653}, {"measurement": "GoB hCB1", "setting": "hCB1; Log [Compound] (M) -11.9208", "value": -6.586}, {"measurement": "Gi1 hCB1", "setting": "hCB1; Log [Compound] (M) -12.3979", "value": -2.024}, {"measurement": "GoB hCB1", "setting": "hCB1; Log [Compound] (M) -12.3979", "value": -6.3778}, {"measurement": "Gi1 hCB1", "setting": "hCB1; Log [Compound] (M) -12.8861", "value": -1.992}, {"measurement": "GoB hCB1", "setting": "hCB1; Log [Compound] (M) -12.8861", "value": -4.242}, {"measurement": "Gi1 hCB1", "setting": "hCB1; Log [Compound] (M) -13", "value": 0.06671}, {"measurement": "GoB hCB1", "setting": "hCB1; Log [Compound] (M) -13", "value": -4.798}, {"measurement": "Gi1 hCB1", "setting": "hCB1; Log [Compound] (M) cell empty", "value": -0.7726}, {"measurement": "GoB hCB1", "setting": "hCB1; Log [Compound] (M) cell empty", "value": -5.458}, {"measurement": "Ki", "setting": "CB1 (rCB1) [2]", "value": 0.876, "unit": "µM"}]}]}
